Experimental data as given in patent US7297704B2, “Cycloalkyfused indole, benzothiophene, benzofuran and idene derivatives” (Wyeth, priority 2005, dated 2007).
Structures can show the parent of a compound that is named as a salt.

Legend:
Human 5-HT1A Receptor [1] = target: T1, Human 5-HT1A Receptor (Homo sapiens, UniProt P08908); test: 8-OH-DPAT binding, human 5-HT1A receptor cell line; settings: stably transfected CHO cells, 8-OH-DPAT ligand 1.5 nM; read-out: h5-HT1A Affinity, Ki
T1 construct: expressed in transfected cells; host or cells: CHO cells
T1 sequence (P08908 1-422): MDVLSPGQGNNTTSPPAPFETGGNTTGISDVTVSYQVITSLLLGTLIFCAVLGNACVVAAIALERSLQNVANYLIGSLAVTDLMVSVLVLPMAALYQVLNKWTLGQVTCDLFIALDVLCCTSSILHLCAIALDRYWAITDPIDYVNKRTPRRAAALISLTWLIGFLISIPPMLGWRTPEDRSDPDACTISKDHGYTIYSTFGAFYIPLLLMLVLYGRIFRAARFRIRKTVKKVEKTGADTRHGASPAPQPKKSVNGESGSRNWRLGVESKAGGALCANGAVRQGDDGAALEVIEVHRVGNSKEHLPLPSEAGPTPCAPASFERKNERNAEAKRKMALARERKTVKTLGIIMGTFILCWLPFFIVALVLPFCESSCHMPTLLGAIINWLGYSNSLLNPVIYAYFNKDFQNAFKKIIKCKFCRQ
Description: Stably transfected CHO cells were grown in DMEM containing 10% heat inactivated FBS and non-essential amino acids. Cells were scraped off the plate, transferred to centrifuge tubes, and washed twice by centrifugation (2000 rpm for 10 min., 4° C.) in buffer (50 mM Tris, pH 7.5). The resulting pellets were aliquoted and placed at −80° C. On day of assay, the cells were thawed on ice, and resuspended in buffer. The binding assay was performed in a 96 well microtiter plate in a total volume of […]. Non-specific binding was determined in the presence of […] 5HT; final ligand concentration was 1.5 nM. Following a 30 min. incubation at room temperature, the reaction was terminated by the addition of ice cold buffer and rapid filtration through a GF/B filter presoaked for 30 min. in 0.5% PEI. Compounds were initially tested in a single point assay to determine percent inhibition at […]. Subsequently, Ki values were determined for compounds defined to be active. Percent inhibition Ki was determined by RFComp (Lundon Software), with Serotonin 8-OH-DPAT as the reference compounds.

Human 5-HT1A Receptor [2] = target: T1, Human 5-HT1A Receptor; test: cAMP RIA in human 5-HT1A receptor cell line; assay type: cell-based; settings: superscript b; reversal of agonist activity, CHO cells; read-out: c-AMP, (IC50)^b
Description: Stably transfected CHO cells were grown in DMEM containing 10% heat inactivated FBS and non-essential amino acids. The cells were plated at a density of 10^6 cells per well in a 96 well plate and incubated for 2 days in a CO2 incubator. On the second day, the media was replaced with 0.1 ml Krebs and incubated 15 minutes at 37° C. The media was then replaced with Krebs buffer containing 500 uM IBMX and incubated 5 minutes at 37° C. Wells were treated with forskolin (1 uM final conc) followed immediately by test compound (0.1 and 1 uM for initial screen) and incubated for an additional 10 min at 37° C. Reaction was terminated by removal of the media and addition of 0.5 ml ice cold assay buffer (supplied in RIA kit). Plates are stored at −20° C. prior to assessment of cAMP formation by RIA. Compounds shown to have no agonist activities were further analyzed for ability to reverse agonist activity. In separate experiments, 6 concentrations of antagonist were preincubated for 20 min prior to the addition of agonist and forskolin. Cells were harvested as described. The cAMP kit is supplied by Amersham and the RIA is performed as per kit instructions. In the initial screen, percent inhibition of forskolin stimulated cAMP was measured. In the secondary screen, IC50 of reversal of agonist activity was measured. Calculations of IC50 were performed by GraphPad Prism. Serotonin, BMY 7378, Buspirone, and 8-OH-DPAT were used as reference compounds.

serotonin transporter = target: T2, serotonin transporter (Rattus norvegicus, UniProt P31652); test: 3H-paroxetine binding to the serotonin transporter, rat frontal cortical membranes; settings: values printed in parentheses, 3H-paroxetine 0.1 nM, read-out: rb-5-HH-T, (IC50)
T2 construct: frontal cortical membranes prepared from male S.D. rats; from tissue; host or cells: rat frontal cortex membranes (male Sprague-Dawley)
Description: A protocol similar to that used by Cheetham et al. (Neuropharmacol. 32:737, 1993) was used to determine the affinity of compounds for the serotonin transporter. Briefly, frontal cortical membranes prepared from male S.D. rats were incubated with ^3H-paroxetine (0.1 nM) for 60 min at 25° C. All tubes also contained either vehicle, test compound (one to eight concentrations), or a saturating concentration of fluoxetine (10 μM) to define […]. All reactions are terminated by the addition of ice cold Tris buffer followed by rapid filtration using a Tom Tech filtration device to separate bound from free ^3H-paroxetine. Bound radioactivity was quantitated using a Wallac 1205 Beta Plate® counter. Nonlinear regression analysis was used to determine IC50 values which were converted to Ki values using the method of Cheng and Prusoff (Biochem. Pharmacol. 22: 3099, 1973); […].

T2 sequence (P31652 whole entry): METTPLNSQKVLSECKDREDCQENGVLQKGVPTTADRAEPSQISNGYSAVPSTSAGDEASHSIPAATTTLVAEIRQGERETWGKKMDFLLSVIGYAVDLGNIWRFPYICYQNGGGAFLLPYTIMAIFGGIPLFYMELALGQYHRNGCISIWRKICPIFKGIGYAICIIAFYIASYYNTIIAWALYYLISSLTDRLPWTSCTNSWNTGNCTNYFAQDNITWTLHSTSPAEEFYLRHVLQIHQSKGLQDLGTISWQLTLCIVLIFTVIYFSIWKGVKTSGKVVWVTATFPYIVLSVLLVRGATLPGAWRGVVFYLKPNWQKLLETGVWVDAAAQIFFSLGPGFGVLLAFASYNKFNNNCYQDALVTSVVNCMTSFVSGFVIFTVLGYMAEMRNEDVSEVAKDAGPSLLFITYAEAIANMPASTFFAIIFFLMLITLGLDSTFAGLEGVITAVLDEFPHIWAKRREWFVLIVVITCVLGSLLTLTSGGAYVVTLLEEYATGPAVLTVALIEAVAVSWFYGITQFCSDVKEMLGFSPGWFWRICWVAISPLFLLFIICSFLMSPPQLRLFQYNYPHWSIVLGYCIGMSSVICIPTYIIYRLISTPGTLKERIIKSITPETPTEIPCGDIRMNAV

Ki (Human 5-HT1A Receptor [1]) [nM] | IC50 (Human 5-HT1A Receptor [2]) [nM] | IC50 (serotonin transporter) [nM] | melting point | Structure (SMILES)
4.95 | 249 | 11.3 | 267 to 275 °C | Cc1ccc2c3c(ccc2n1)OC[C@H](CNC[C@H]1CCc2[nH]c4c(F)cc(F)cc4c2C1)O3.Cl.Cl [Example 10, N-{[(3S)-6,8-difluoro-2,3,4,9-tetrahydro-1H-carbazol-3-yl]methyl}-N-{[(2S)-8-methyl-2,3-dihydro[1,4]dioxino[2,3-f]quinolin-2-yl]methyl}amine dihydrochloride]
13.6 | 79.5 | 3.61 | 236 to 241 °C | Cc1ccc2c3c(ccc2n1)OC[C@H](CNC[C@H]1CCc2[nH]c4ccc(C#N)cc4c2C1)O3.Cl.Cl [Example 14, (3S)-3-[({[(2S)-8-methyl-2,3-dihydro[1,4]dioxino[2,3-f]quinolin-2-yl]methyl}amino)methyl]-2,3,4,9-tetrahydro-1H-carbazole-6-carbonitrile dihydrochloride]
1.8 | 22.1 | 120 | 89 to 97 °C | Cc1ccc2c3c(ccc2n1)OC[C@H](CNCC1CCc2[nH]c4cc(F)ccc4c2C1)O3 (stereo partly drawn) [Example 13, N-[(7-fluoro-2,3,4,9-tetrahydro-1H-carbazol-3-yl)methyl]-N-{[(2S)-8-methyl-2,3-dihydro[1,4]dioxino[2,3-f]quinolin-2-yl]methyl}amine]
2.23 | 15.2 | 49.4 | 92 to 96 °C | Cc1ccc2c3c(ccc2n1)OC[C@H](CNCC1CCc2c([nH]c4ccc(F)cc24)C1)O3 (stereo partly drawn) [Example 1, N-[(6-fluoro-2,3,4,9-tetrahydro-1H-carbazol-2-yl)methyl]-N-{[(2S)-8-methyl-2,3-dihydro[1,4]dioxino[2,3-f]quinolin-2-yl]methyl}amine]
3.65 | 532 | 9.01 | 57 to 62 °C | Cc1ccc2c3c(ccc2n1)OC[C@H](CNCC1CCc2c(c4cc(F)ccc4n2C)C1)O3 (mixture of isomers) [Example 6, N-[(6-fluoro-9-methyl-2,3,4,9-tetrahydro-1H-carbazol-3-yl)methyl]-N-{[(2S)-8-methyl-2,3-dihydro[1,4]dioxino[2,3-f]quinolin-2-yl]methyl}amine]
1.36 | 7.2 | 5.26 | 89 to 97 °C | Cc1ccc2c3c(ccc2n1)OC[C@H](CNCC1CCc2[nH]c4ccc(F)cc4c2C1)O3 (mixture of isomers) [Example 2, N-[(6-fluoro-2,3,4,9-tetrahydro-1H-carbazol-3-yl)methyl]-N-{[(2S)-8-methyl-2,3-dihydro[1,4]dioxino[2,3-f]quinolin-2-yl]methyl}amine]
16.7 | 49.2 | 124 | 220 to 230 °C | Cc1ccc2c3c(ccc2n1)OC[C@H](CNCC1CCc2[nH]c4cccc(F)c4c2C1)O3.Cl.Cl (stereo partly drawn) [Example 11, [(5-fluoro-2,3,4,9-tetrahydro-1H-carbazol-3-yl)methyl]{[(2S)-8-methyl-2,3-dihydro[1,4]dioxino[2,3-f]quinolin-2-yl]methyl}amine dihydrochloride]
3.7 | 105 | 57.6 | 260 to 272 °C | Cc1ccc2c3c(ccc2n1)OC[C@H](CNC[C@@H]1CCc2[nH]c4c(F)cc(F)cc4c2C1)O3.Cl.Cl [Example 9, N-{[(3R)-6,8-difluoro-2,3,4,9-tetrahydro-1H-carbazol-3-yl]methyl}-N-{[(2S)-8-methyl-2,3-dihydro[1,4]dioxino[2,3-f]quinolin-2-yl]methyl}amine dihydrochloride]
– | – | – | 218 to 221 °C (dec.) | Cc1ccc2c3c(ccc2n1)OC[C@H](CNC[C@@H]1CCc2[nH]c4ccccc4c2C1)O3 (single isomer, unassigned) (as salt: hydrochloride) [Example 100b]
– | – | – | 242 to 260 °C | Cc1ccc2c3c(ccc2n1)OC[C@H](CNC[C@@H]1CCc2c(c4cc(F)ccc4n2C)C1)O3 (as salt: hydrochloride) [Example 8, N-{[(3R)-6-fluoro-9-methyl-2,3,4,9-tetrahydro-1H-carbazol-3-yl]methyl}-N-{[(2S)-8-methyl-2,3-dihydro[1,4]dioxino[2,3-f]quinolin-2-yl]methyl}amine]
15 | 888 | 2.25 | 254 to 258 °C | Cc1ccc2c3c(ccc2n1)OC[C@H](CNC[C@@H]1CCc2[nH]c4ccc(C#N)cc4c2C1)O3.Cl.Cl [Example 15, (3R)-3-[({[(2S)-8-methyl-2,3-dihydro[1,4]dioxino[2,3-f]quinolin-2-yl]methyl}amino)methyl]-2,3,4,9-tetrahydro-1H-carbazole-6-carbonitrile dihydrochloride]
– | – | – | 204 to 225 °C | Cc1ccc2c3c(ccc2n1)OC[C@H](CN(CC1CCc2c(c4cc(F)ccc4n2C)C1)C1CCCCC1)O3.Cl.O (stereo partly drawn) (hydrate or solvate) [Example 67, N-[(6-Fluoro-9-methyl-2,3,4,9-tetrahydro-1H-carbazol-3-yl)methyl]-N-{[(2S)-8-methyl-2,3-dihydro[1,4]dioxino[2,3-f]quinolin-2-yl]methyl}cyclohexanamine monohydrochloride monohydrate]
– | – | – | 220 to 226 °C | Cc1ccc2c3c(ccc2n1)OC[C@H](CNC[C@H]1CCc2c(c4cc(F)ccc4n2C)C1)O3 (as salt: hydrochloride) [Example 7]

Structure (SMILES) | Ki (Human 5-HT1A Receptor [1]) [nM] | IC50 (Human 5-HT1A Receptor [2]) [nM] | IC50 (serotonin transporter) [nM] | melting point
Cc1ccc2c3c(ccc2n1)OC[C@H](CN(CC1CC1)C[C@@H]1CCc2[nH]c4ccc(F)cc4c2C1)O3.Cl.Cl.O.O (hydrate or solvate) [Example 55, (Cyclopropylmethyl){[(3R)-6-fluoro-2,3,4,9-tetrahydro-1H-carbazol-3-yl]methyl}{[(2S)-8-methyl-2,3-dihydro[1,4]dioxino[2,3-f]quinolin-2-yl]methyl}amine dihydrochloride dihydrate] | – | – | – | 210 to 225 °C
Cc1ccc2c3c(ccc2n1)OC[C@H](CN(C)C[C@H]1CCc2c(c4cc(F)ccc4n2C)C1)O3.Cl.O (hydrate or solvate) [Example 68, {[(3S)-6-Fluoro-9-methyl-2,3,4,9-tetrahydro-1H-carbazol-3-yl]methyl}methyl{[(2S)-8-methyl-2,3-dihydro[1,4]dioxino[2,3-f]quinolin-2-yl]methyl}amine monohydrochloride monohydrate] | – | – | – | 248 to 258 °C
CCC(C)N(C[C@@H]1CCc2[nH]c3ccc(F)cc3c2C1)C[C@H]1COc2ccc3nc(C)ccc3c2O1.Cl.O (stereo partly drawn) (hydrate or solvate) [Example 58, N-{[(3R)-6-Fluoro-2,3,4,9-tetrahydro-1H-carbazol-3-yl]methyl}-N-{[(2S)-8-methyl-2,3-dihydro[1,4]dioxino[2,3-f]quinolin-2-yl]methyl}butan-2-amine monohydrochloride monohydrate] | – | – | – | 235 to 256 °C
